Counter-ions that a name gives are not always drawn.
Tests used:
[1] = biological target: hERG (human Ether-a-go-go Related Gene) channels (Homo sapiens, UniProt Q12809); settings: cited from earlier work
129S6/SvEv mice [2] = assay: Forced swim test (FST) after CFC; format: in vivo
Method: (§1) This chronic CORT elevation dysregulates the hypothalamic-pituitary-adrenal axis (HPA) in a manner similar to that observed in clinical depression. The dose and duration of CORT treatment was selected based on previous studies. CORT (35 μg/ml, equivalent to about 5 mg/kg/day) dissolved in 0.45% hydroxypropyl-o-cyclodextrin (0-CD) or vehicle (VEH) (0.45% j-CD) was available ad libitum in the drinking water in opaque bottles to protect it from light. VEH- and CORT-treated water was changed every 3 days to prevent possible degradation. Contextual Fear Conditioning (CFC): A 3-shock CFC procedure was administered as previously published. Briefly, mice were placed into context A and administered 3 2-s shocks (0.75 mA) at 180 s, 240 s or 300 s following placement into context A. Mice were removed from the context 15 s following the termination of shock (at 317 s). For context retrieval, mice were placed back into context A for 300 s. Electrophysiology: Electrophysiology was conducted as previously described. Statistical Analysis: Results from data analyses are expressed as means±SEM. Alpha was set to 0.05 for all analyses. Data were analyzed using GraphPad Prism v7.0 or v8.0. For all experiments, unless otherwise noted, one- or two-way ANOVAs with repeated-measures were applied to the data as appropriate. Significant main effects and/or interactions were followed by Fisher's PLSD post hoc analysis or unpaired t-tests. Drugs: All drugs were prepared in physiological saline and all injections were administered intraperitoneally (i.p.) in volumes of 0.1 cc per […] body weight unless otherwise noted. Fluoxetine hydrochloride (Flx): Flx (BioTrend Chemicals AG, BG197, Zurich, Germany) was administered in the drinking water (18 mg/kg/day) for 3 weeks before the start of CORT. […] (R,S)-ketamine (K): (R,S)-ketamine (Ketaset III, Ketamine HCl injection, Fort Dodge Animal Health, Fort Dodge, Iowa) was administered in a single dose at 30 mg/kg of body weight 1 week before the start of CFC. […] PF-04995274: PF-04995274 (Sigma, Catalog No. 1331782-27-4, St. Louis, Mo.) was administered a single dose at 3 or 10 mg/kg of body weight 1 week before the start of CFC. PF-04995274 was dissolved in saline using an ultrasonic homogenizer (BioLogics, Model 3000, Manassas, Va.). Osmotic minipump implantation: ALZET osmotic minipumps (Model 2004, […], 28 days) were implanted subcutaneously under isoflurane anesthesia as previously described [S2]. Osmotic minipumps were rotated under the skin two to three times per week. Behavioral Assays: All experiments were approved by the Institutional Animal Care and Use Committee (IACUC) at the New York Psychiatric Institute (NYSPI). Elevated Plus Maze (EPM): Testing was performed as previously described [S3]. Briefly, the maze is a plus-cross-shaped apparatus consisting of four arms, two open and two enclosed by walls, linked by a central platform at a height of 50 cm from the floor. Mice were individually placed in the center of the maze facing an open arm and were allowed to explore the maze for 5 min. The time spent in and the number of entries into the open arms was used as an anxiety index. Videos were scored using ANY-maze behavior tracking software (Stoelting, Wood Dale, Ill.). Novelty-Suppressed Feeding: The NSF is a conflict test that elicits competing motivations: the drive to eat and the fear of venturing into the center of a brightly lit arena. The latency to feed is used as an index of anxiety-like behavior, because classical anxiolytic drugs decrease this measure. The NSF test was carried out during an 8 min period as previously described [S3]. Briefly, the testing apparatus consisted of a plastic box (50×50×20 cm), the floor of which was covered with approximately 2 cm of bedding. For 129S6/SvEv experiments, mice were food restricted for 12 h. For the C57BL/6N experiments, mice were food restricted for 24 h. […]

129S6/SvEv mice [3] = assay: 3-shock contextual fear conditioning (CFC); format: in vivo
Method: as §1

5-HT4R = settings: cited from earlier work
CA3 pyramidal cells = assay: Whole-cell voltage clamp recordings of spontaneous EPSCs in CA3 slices; format: cell-based, mice; settings: (R,S)-ketamine 30 mg/kg or prucalopride 3 mg/kg injected 1 week before slicing
Method: as §1

[4] = FIG. 4 cohort, Male, FIG. 4F, RMANOVA, Fisher's LSD
[5] = FIG. 4 cohort, Male, FIG. 4G, ANOVA, Fisher's LSD
[6] = FIG. 4 cohort, Male, FIG. 4C, RMANOVA, Fisher's LSD
[7] = FIG. 4 cohort, Male, FIG. 4D, ANOVA, Fisher's LSD

Chain of hERG (human Ether-a-go-go Related Gene) channels (Q12809 whole entry): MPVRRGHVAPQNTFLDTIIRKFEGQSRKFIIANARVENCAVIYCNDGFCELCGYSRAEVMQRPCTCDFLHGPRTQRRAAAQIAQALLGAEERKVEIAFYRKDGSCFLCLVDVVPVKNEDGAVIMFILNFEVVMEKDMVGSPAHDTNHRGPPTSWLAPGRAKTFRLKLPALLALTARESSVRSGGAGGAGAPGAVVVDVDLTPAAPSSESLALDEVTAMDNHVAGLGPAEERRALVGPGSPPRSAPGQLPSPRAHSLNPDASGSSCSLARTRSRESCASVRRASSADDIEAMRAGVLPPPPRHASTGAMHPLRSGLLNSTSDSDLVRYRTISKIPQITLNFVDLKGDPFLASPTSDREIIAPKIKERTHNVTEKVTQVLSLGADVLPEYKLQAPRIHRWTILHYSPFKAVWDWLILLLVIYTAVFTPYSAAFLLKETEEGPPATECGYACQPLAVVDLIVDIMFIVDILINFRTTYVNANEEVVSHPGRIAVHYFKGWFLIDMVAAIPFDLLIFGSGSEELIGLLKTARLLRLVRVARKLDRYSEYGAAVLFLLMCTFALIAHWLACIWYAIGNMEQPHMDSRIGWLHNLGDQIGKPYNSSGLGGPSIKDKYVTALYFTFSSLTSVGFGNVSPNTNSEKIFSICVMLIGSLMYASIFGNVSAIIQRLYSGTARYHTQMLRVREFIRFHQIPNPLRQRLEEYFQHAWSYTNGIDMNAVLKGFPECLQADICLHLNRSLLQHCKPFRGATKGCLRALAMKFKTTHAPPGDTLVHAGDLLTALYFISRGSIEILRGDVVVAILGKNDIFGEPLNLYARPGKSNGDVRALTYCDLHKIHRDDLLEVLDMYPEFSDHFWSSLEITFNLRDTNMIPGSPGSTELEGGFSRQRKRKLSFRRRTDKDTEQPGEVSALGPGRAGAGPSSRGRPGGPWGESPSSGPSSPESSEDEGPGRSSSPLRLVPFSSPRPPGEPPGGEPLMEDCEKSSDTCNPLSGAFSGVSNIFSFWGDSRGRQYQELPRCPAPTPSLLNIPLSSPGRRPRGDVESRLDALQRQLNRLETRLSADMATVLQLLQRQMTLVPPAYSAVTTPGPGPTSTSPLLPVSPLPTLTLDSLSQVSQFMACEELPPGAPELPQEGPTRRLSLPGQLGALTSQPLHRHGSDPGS

COCCCN1CCC(NC(=O)c2cc(Cl)c(N)c3c2OCC3)CC1 [Prucalopride, 4-amino-5-chloro-2,3-dihydro-N-[1-3-methoxypropyl)-4-piperidinyl]-7-benzofuran carboxamide monohydrochloride]
affinity for the hERG channels [1]: no affinity | p, FST Day 2 Immobility Time (sec), Prucalopride (3 mg/kg) vs. PF04995274 (3 mg/kg) (129S6/SvEv mice [2]; [4]): 0.2475 | p, FST Day 2 Immobility Time (sec), Prucalopride (3 mg/kg) vs. PF04995274 (10 mg/kg) (129S6/SvEv mice [2]; [4]): 0.4224 | p, FST Day 2 Immobility Time (sec), Prucalopride (3 mg/kg) vs. Prucalopride (10 mg/kg) (129S6/SvEv mice [2]; [4]): 0.0568 | p, FST Day 2 Immobility Time (sec), Prucalopride (10 mg/kg) vs. PF04995274 (3 mg/kg) (129S6/SvEv mice [2]; [4]): 0.6674 | p, FST Day 2 Immobility Time (sec), Prucalopride (10 mg/kg) vs. PF04995274 (10 mg/kg) (129S6/SvEv mice [2]; [4]): 0.0209 | p, FST Day 2 Immobility Time (sec), Saline vs. Prucalopride (3 mg/kg) (129S6/SvEv mice [2]; [4]): 0.0052 | p, FST Day 2 Immobility Time (sec), Saline vs. Prucalopride (10 mg/kg) (129S6/SvEv mice [2]; [4]): 0.1772 | p, FST Day 2 Immobility Time (min 3-6) (sec), Prucalopride (3 mg/kg) vs. PF04995274 (3 mg/kg) (129S6/SvEv mice [2]; [5]): 0.4089 | p, FST Day 2 Immobility Time (min 3-6) (sec), Prucalopride (3 mg/kg) vs. PF04995274 (10 mg/kg) (129S6/SvEv mice [2]; [5]): 0.3387 | p, FST Day 2 Immobility Time (min 3-6) (sec), Prucalopride (3 mg/kg) vs. Prucalopride (10 mg/kg) (129S6/SvEv mice [2]; [5]): 0.0622 | p, FST Day 2 Immobility Time (min 3-6) (sec), Prucalopride (10 mg/kg) vs. PF04995274 (3 mg/kg) (129S6/SvEv mice [2]; [5]): 0.4653 | p, FST Day 2 Immobility Time (min 3-6) (sec), Saline vs. Prucalopride (3 mg/kg) (129S6/SvEv mice [2]; [5]): 0.0093 | p, FST Day 2 Immobility Time (min 3-6) (sec), Saline vs. Prucalopride (10 mg/kg) (129S6/SvEv mice [2]; [5]): 0.2443 | p, FST Day 2 Immobility Time (min 3-6) (sec), Prucalopride (10 mg/kg) vs. PF04995274 (129S6/SvEv mice [2]; FIG. 4 cohort, Male, FIG. 4G, ANOVA, Fisher's LSD, PF04995274 dose stands below the shown rows): 0.0156 | immobility, FST day 1 (129S6/SvEv mice [2]; male 129S6/SvEv, (R,S)-ketamine 30, prucalopride 3 or 10, PF-04995274 3 or 10 mg/kg): comparable levels of immobility | immobility time, FST day 2 vs saline (129S6/SvEv mice [2]; male 129S6/SvEv, single injection 1 week before CFC, 3 mg/kg): decreased immobility time | p, CFC Re-exposure Freezing (%), Prucalopride (3 mg/kg) vs. PF04995274 (3 mg/kg) (129S6/SvEv mice [3]; [6]): 0.0014 | p, CFC Re-exposure Freezing (%), Prucalopride (3 mg/kg) vs. PF04995274 (10 mg/kg) (129S6/SvEv mice [3]; [6]): 0.2229 | p, CFC Re-exposure Freezing (%), Prucalopride (3 mg/kg) vs. Prucalopride (10 mg/kg) (129S6/SvEv mice [3]; [6]): 0.0004 | p, CFC Re-exposure Freezing (%), Prucalopride (10 mg/kg) vs. PF04995274 (3 mg/kg) (129S6/SvEv mice [3]; [6]): 0.7981 | p, CFC Re-exposure Freezing (%), Prucalopride (10 mg/kg) vs. PF04995274 (10 mg/kg) (129S6/SvEv mice [3]; [6]): 0.0568 | p, CFC Re-exposure Freezing (%), Saline vs. Prucalopride (3 mg/kg) (129S6/SvEv mice [3]; [6]): 0.0004 | p, CFC Re-exposure Freezing (%), Saline vs. Prucalopride (10 mg/kg) (129S6/SvEv mice [3]; [6]): 0.4723 | p, CFC Re-exposure, Prucalopride (3 mg/kg) vs. PF04995274 (3 mg/kg) (129S6/SvEv mice [3]; [7]): 0.0014 | p, CFC Re-exposure, Prucalopride (3 mg/kg) vs. PF04995274 (10 mg/kg) (129S6/SvEv mice [3]; [7]): 0.2229 | p, CFC Re-exposure, Prucalopride (3 mg/kg) vs. Prucalopride (10 mg/kg) (129S6/SvEv mice [3]; [7]): 0.0004 | p, CFC Re-exposure, Prucalopride (10 mg/kg) vs. PF04995274 (3 mg/kg) (129S6/SvEv mice [3]; [7]): 0.7981 | p, CFC Re-exposure, Prucalopride (10 mg/kg) vs. PF04995274 (10 mg/kg) (129S6/SvEv mice [3]; [7]): 0.0568 | p, CFC Re-exposure, Saline vs. Prucalopride (3 mg/kg) (129S6/SvEv mice [3]; [7]): 0.0004 | p, CFC Re-exposure, Saline vs. Prucalopride (10 mg/kg) (129S6/SvEv mice [3]; [7]): 0.4723 | freezing during CFC training (129S6/SvEv mice [3]; male 129S6/SvEv, (R,S)-ketamine 30, prucalopride 3 or 10, PF-04995274 3 or 10 mg/kg, 1 week before CFC, vs saline): comparable levels of freezing | freezing at re-exposure to the training context (learned fear) vs saline (129S6/SvEv mice [3]; male 129S6/SvEv, single i.p. injection 1 week before CFC, re-exposure 5 days later, 3 mg/kg): attenuated learned fear | Affinity (pKi) (5-HT4R): 8.1-8.6 | average EPSC amplitude vs saline (CA3 pyramidal cells): no differences | large AMPA receptor-mediated bursts of EPSCs (CA3 pyramidal cells): not present | number of EPSCs vs saline (CA3 pyramidal cells): no differences

From patent US20220031684A1, “PROPHYLACTIC EFFICACY OF SEROTONIN 4 RECEPTOR AGONISTS AGAINST STRESS” (THE TRUSTEES OF COLUMBIA UNIVERSITY IN THE CITY OF NEW YORK, priority 2019, published 2022)
